Target: Transient receptor potential cation channel subfamily V member 1 (Homo sapiens, UniProt Q8NER1)
Experiment: Ca2+ Influx Functional Assay for the Determination of in Vitro Activity.
Conditions: pH 7.4; 22 °C; read-out: EC50 (the source's name)
Protocol: The functional antagonist activity of compounds at the TRPV1 receptor was determined with a Ca2+ influx assay by measuring the effect on capsaicin (0.05 uM) evoked increase in intracellular Ca2+ levels using cells stably expressing recombinant human TRPV1. All compounds were tested over an 11-point half-log concentration range. The fluorescent Ca2+ chelating dye fluo-4 was used as an indicator of the relative levels of Ca2+ in a 96-well format using a fluorescence imaging plate reader. Fluorescence readings were made at 1-5 s intervals over the 240 s course of the experimental run. The peak increase in relative fluorescence units was calculated and expressed as a percentage of the 0.05 uM capsaicin (control) response. Curve fits of the data were solved using a four-parameter logistic Hill equation in GraphPad Prism, and IC50 values were calculated.

Chain of Transient receptor potential cation channel subfamily V member 1 (Q8NER1 whole entry): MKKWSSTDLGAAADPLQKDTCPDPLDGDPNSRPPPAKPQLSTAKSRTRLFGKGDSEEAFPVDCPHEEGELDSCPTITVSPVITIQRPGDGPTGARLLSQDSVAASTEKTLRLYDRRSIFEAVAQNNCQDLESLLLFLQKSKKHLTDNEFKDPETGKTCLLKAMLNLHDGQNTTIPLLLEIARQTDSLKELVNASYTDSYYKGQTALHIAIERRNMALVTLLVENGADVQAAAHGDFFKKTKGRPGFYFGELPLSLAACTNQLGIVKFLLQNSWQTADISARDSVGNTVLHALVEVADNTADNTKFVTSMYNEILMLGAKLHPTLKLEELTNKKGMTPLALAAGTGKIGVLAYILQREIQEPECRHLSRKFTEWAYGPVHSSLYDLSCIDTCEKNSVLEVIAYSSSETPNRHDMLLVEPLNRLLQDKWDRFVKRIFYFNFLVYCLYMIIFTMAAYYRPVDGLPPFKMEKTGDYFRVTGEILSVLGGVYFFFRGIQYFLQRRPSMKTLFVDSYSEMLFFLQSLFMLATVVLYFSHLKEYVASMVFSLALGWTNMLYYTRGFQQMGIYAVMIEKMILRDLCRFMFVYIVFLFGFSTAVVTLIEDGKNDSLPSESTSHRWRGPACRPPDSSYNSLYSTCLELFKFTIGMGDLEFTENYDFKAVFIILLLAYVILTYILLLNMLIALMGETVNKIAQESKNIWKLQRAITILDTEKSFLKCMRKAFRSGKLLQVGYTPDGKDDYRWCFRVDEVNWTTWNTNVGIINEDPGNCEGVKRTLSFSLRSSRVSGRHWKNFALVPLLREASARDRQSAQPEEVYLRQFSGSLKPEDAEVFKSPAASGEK

| Compound | IC50 [nM] |
| --- | --- |
| CC(NC(=O)Nc1cccc2cnccc12)c1ccc(C(F)(F)F)cc1 (configuration not stated) | 22 |
| CC(NC(=O)Nc1cccc2[nH]ncc12)c1ccc(C(F)(F)F)cc1 (racemic) [3-1H-indazol-4-yl-1-{1-[4-(trifluoromethyl)phenyl]ethyl}urea] | 47 |
| O=C(Nc1cccc2cnccc12)NC(c1ccccc1)c1ccccc1 [1-(diphenylmethyl)-3-isoquinolin-5-ylurea] | 600 |
| CC(C)(C)c1ccc(C(NC(=O)Nc2cccc3cnccc23)c2ccccc2)cc1 (configuration not stated) [1-[(4-tert-butylphenyl)(phenyl)methyl]-3-isoquinolin-5-ylurea] | 125 |
| CCC(NC(=O)Nc1cccc2cnccc12)c1ccccc1 (configuration not stated) [1-isoquinolin-5-yl-3-(1-phenylpropyl)urea] | 2580 |
| CC(C)(NC(=O)Nc1cccc2cnccc12)c1ccc(C(F)(F)F)cc1 [1-isoquinolin-5-yl-3-{2-[4-(trifluoromethyl)phenyl]propan-2-yl}urea] | 94 |
| O=C(Nc1cccc2cnccc12)NC(c1ccc(C(F)(F)F)cc1)C1CCCCC1 (configuration not stated) [1-{cyclohexyl[4-(trifluoromethyl)phenyl]methyl}-3-isoquinolin-5-ylurea] | 287 |
| Cc1ccc([C@@H](C)NC(=O)Nc2cccc3[nH]ncc23)cc1 [3-1H-indazol-4-yl-1-[(1R)-1-(4-methylphenyl)ethyl]urea] | 73 |
| C[C@@H](NC(=O)Nc1cccc2[nH]ncc12)c1ccc2ccccc2c1 [3-1H-indazol-4-yl-1-[(1R)-1-(naphthalen-2-yl)ethyl]urea] | 123 |
| C[C@@H](NC(=O)Nc1cccc2[nH]ncc12)c1ccc(C(F)(F)F)cc1 [3-1H-indazol-4-yl-1-[(1R)-1-[4-(trifluoromethyl)phenyl]ethyl]urea] | 41 |
| Cc1ccc([C@H](C)NC(=O)Nc2cccc3[nH]ncc23)cc1 [3-1H-indazol-4-yl-1-[(1S)-1-(4-methylphenyl)ethyl]urea] | 749 |
| C[C@H](NC(=O)Nc1cccc2[nH]ncc12)c1ccc2ccccc2c1 [3-1H-indazol-4-yl-1-[(1S)-1-(naphthalen-2-yl)ethyl]urea] | 3750 |
| C[C@H](NC(=O)Nc1cccc2[nH]ncc12)c1ccc(C(F)(F)F)cc1 [3-1H-indazol-4-yl-1-[(1S)-1-[4-(trifluoromethyl)phenyl]ethyl]urea] | 248 |
| N#CCC(NC(=O)Nc1cccc2cnccc12)c1ccccc1 (configuration not stated) [3-(2-cyano-1-phenylethyl)-1-isoquinolin-5-ylurea] | 15900 |
| CC(NC(=O)Nc1cccc2cnccc12)c1ccc(C(C)(C)C)cc1C(C)(C)C (configuration not stated) [3-[1-(2,4-di-tert-butylphenyl)ethyl]-1-isoquinolin-5-ylurea] | 17 |
| CC(NC(=O)Nc1cccc2cnccc12)c1ccc(Br)cc1 (configuration not stated) [3-[1-(4-bromophenyl)ethyl]-1-isoquinolin-5-ylurea] | 26 |
| CCc1cc(C(C)(C)C)ccc1C(C)NC(=O)Nc1cccc2cnccc12 (configuration not stated) [3-[1-(4-tert-butyl-2-ethylphenyl)ethyl]-1-isoquinolin-5-ylurea] | 20 |
| Cc1cc(C(C)(C)C)ccc1C(C)NC(=O)Nc1cccc2cnccc12 (configuration not stated) [3-[1-(4-tert-butyl-2-methylphenyl)ethyl]-1-isoquinolin-5-ylurea] | 46 |
| CC(NC(=O)Nc1cccc2cnccc12)c1ccc(C(C)(C)C)cc1 (configuration not stated) [3-[1-(4-tert-butylphenyl)ethyl]-1-isoquinolin-5-ylurea] | 24 |
| CC(C)(NC(=O)Nc1cccc2cnccc12)c1ccc(Cl)cc1 [3-[2-(4-chlorophenyl)propan-2-yl]-1-isoquinolin-5-ylurea] | 143 |
| CN(C)CC(NC(=O)Nc1cccc2cnccc12)c1ccccc1 (configuration not stated) [3-[2-(dimethylamino)-1-phenylethyl]-1-isoquinolin-5-ylurea] | 31000 |
| O=C(Nc1cccc2cnccc12)NC(c1ccccc1)c1ccc(N2CCCCC2)cc1 (configuration not stated) [3-isoquinolin-5-yl-1-{phenyl[4-(piperidin-1-yl)phenyl]methyl}urea] | 171 |
| O=C(Nc1cccc2cnccc12)NC(c1ccccc1)c1ccc(C(F)(F)F)cc1 (configuration not stated) [3-isoquinolin-5-yl-1-{phenyl[4-(trifluoromethyl)phenyl]methyl}urea] | 147 |
| CC(NC(=O)Nc1cccc2cnccc12)c1ccc(C(F)(F)F)c(F)c1 (configuration not stated) [3-{1-[3-fluoro-4-(trifluoromethyl)phenyl]ethyl}-1-isoquinolin-5-ylurea] | 19 |
| CCC(NC(=O)Nc1cccc2cnccc12)c1ccc(C(F)(F)F)c(F)c1 (configuration not stated) [3-{1-[3-fluoro-4-(trifluoromethyl)phenyl]propyl}-1-isoquinolin-5-ylurea] | 109 |
| O=C(Nc1cccc2cnccc12)NC(c1ccc(C(F)(F)F)cc1)C1CCCC1 (configuration not stated) [3-{cyclopentyl[4-(trifluoromethyl)phenyl]methyl}-1-isoquinolin-5-ylurea] | 476 |
| O=C(Nc1cccc2cnccc12)NC(c1ccc(C(F)(F)F)cc1)C1CC1 (configuration not stated) [3-{cyclopropyl[4-(trifluoromethyl)phenyl]methyl}-1-isoquinolin-5-ylurea] | 149 |
